Reference: patent publication US9867376B2, “Herbicidal compositions comprising N-tetrazol-5-yl)- or N-(triazol-5-yl)arylcarboxamides” (priority 2012, dated 2018)

How the values were obtained:
Type in all cases: in vivo
Setaria viridis = assay: Field trial, post-emergence, visual scoring; conditions: alone
Protocol: (§1) The tests were conducted outdoors (plot trials, 10 m^2 per plot, 2 repetitions, spray application with 200-300 liters of water per hectare). Crops and broad-leaved weeds/weed grasses were sown under customary field conditions. In addition, a natural weed flora also appeared. Application was by the post-emergence method. The application rates of the herbicidally active compounds applied on their own or in combinations are likewise shown in the tables below. Evaluations were by visual scoring (using a 0-100% scale) after application by comparison of treated and untreated test variants.
(§2) The abbreviations denote: • a.i.=active ingredient • E^C=expected value according to Colby (E^C=A+B−A×B100) • Δ=difference (%) of the measured value to the expected value (%) (measured value minus expected value)
(§3) Evaluation: • measured value E is greater than E^C:→synergism (+Δ) • measured value E equals E^C:→additive effect • measured value E is smaller than E^C:→antagonism (−Δ)

Portulaca oleracea = assay: Field trial, post-emergence, visual scoring; conditions: alone
Protocol: as §1, §2, §3

Cassia obtusifolia = assay: Field trial, post-emergence, visual scoring; conditions: alone
Protocol: as §1, §2, §3

Sida spinosa = assay: Field trial, post-emergence, visual scoring; conditions: alone, 10 g of a.i./ha
Protocol: as §1, §2, §3

Abutilon theophrasti = assay: Field trial, post-emergence, visual scoring; conditions: Table 5-17, field, alone
Protocol: as §1, §2, §3

Amaranthus retroflexus = assay: Field trial, post-emergence, visual scoring; conditions: Table 5-48, field, alone
Protocol: as §1, §2, §3

Bidens pilosa = assay: Greenhouse trial, post-emergence, visual herbicidal effect; conditions: alone
Protocol: (§4) The weed seeds were sown in pots (diameter 8 cm) with sandy loam soil and germinated under optimum conditions. The herbides were applied by the post-emergence method onto the pots with the cultures, at a spray volume of 300 I/ha. The herbicides were applied on their own and in combination. The trial was conducted in a greenhouse under optimum growth conditions. The herbicidal effects were assessed visually by comparison of untreated and treated plants. The percentages mean: 0%=no effects, 100%=the plants die off completely). The percentages are used to calculate interactions between individual treatments and combination treatment according to S. R. Colby, Weeds 15, pages 20 to 22 (1967).
as §2, §3

Brachiaria platyphylla = assay: as above; conditions: alone
Protocol: as §4, §2, §3

Lolium multiflorum = assay: Field trial, post-emergence, visual scoring; conditions: alone, 25 g of a.i./ha
Protocol: as §1, §2, §3

Polygunum convolvulus = assay: Field trial, post-emergence, visual scoring; conditions: Table 5-53, field, alone
Protocol: as §1, §2, §3

Ambrosia artemisiifolia = assay: Greenhouse trial, post-emergence, visual herbicidal effect; conditions: Table 5-52, greenhouse, alone, 4 g of a.i./ha
Protocol: as §4, §2, §3

Galium aparine = assay: Field trial, post-emergence, visual scoring; conditions: alone
Protocol: as §1, §2, §3

Centaurea cyanis [1] = assay: Field trial, post-emergence, visual scoring; conditions: Table 5-59, field, alone
Protocol: as §1, §2, §3

Alopecurus myosuroides = assay: Field trial, post-emergence, visual scoring; conditions: Table 5-60, field, alone
Protocol: as §1, §2, §3

Euphorbia heterophylla = assay: Field trial, post-emergence, visual scoring
Protocol: as §1, §2, §3

Xanthium strumarium = assay: Greenhouse trial, post-emergence, visual herbicidal effect; conditions: Table 5-56, greenhouse, alone, 1 g of a.i./ha
Protocol: as §4, §2, §3

Veronica hederifolia [2] = assay: as above; conditions: Table 5-89, greenhouse, alone
Protocol: as §4, §2, §3

Polygonum convolvulus = assay: as above; conditions: alone
Protocol: as §4, §2, §3

Papaver rhoeas = assay: as above; conditions: alone
Protocol: as §4, §2, §3

[3] = test system: broad-leaved weeds/weed grasses; assay: Field trial, post-emergence, visual scoring (species not listed above); conditions: dosage 210 g of a.i./ha
Protocol: as §1, §2, §3

Veronica hederifolia [4] = assay: Field trial, post-emergence, visual scoring; conditions: alone, 210 g of a.i./ha
Protocol: as §1, §2, §3

Avena fatua = assay: Greenhouse trial, post-emergence, visual herbicidal effect; conditions: alone
Protocol: as §4, §2, §3

Viola tricolor = assay: as above; conditions: alone
Protocol: as §4, §2, §3

Centaurea cyanis [5] = assay: as above; conditions: alone
Protocol: as §4, §2, §3

Phalaris minor = assay: as above; conditions: Table 5-03, greenhouse, alone, 25 g of a.i./ha
Protocol: as §4, §2, §3

Question: What does the source list for CCCn1nnnc1NC(=O)c1ccc(C(F)(F)F)c(S(C)(=O)=O)c1C [A1-9]?
Answer: Activity [%] against Setaria viridis (Setaria viridis; Table 5-23, field, 10 g of a.i./ha): 15%; Activity [%] against Setaria viridis (Setaria viridis; Table 5-26, field, 25 g of a.i./ha): 7%; Activity [%] against Portulaca oleracea (Portulaca oleracea; Table 5-13, field, 20 g of a.i./ha): 43%; Activity [%] against Portulaca oleracea (Portulaca oleracea; Table 5-14, field, 20 g of a.i./ha): 43%; Activity [%] against Portulaca oleracea (Portulaca oleracea; Table 5-15, field, 20 g of a.i./ha): 43%; Activity [%] against Portulaca oleracea (Portulaca oleracea; Table 5-16, field, 20 g of a.i./ha): 43%; Activity [%] against Portulaca oleracea (Portulaca oleracea; Table 5-18, field, 20 g of a.i./ha): 43%; Activity [%] against Portulaca oleracea (Portulaca oleracea; Table 5-19, field, 20 g of a.i./ha): 43%; Activity [%] against Portulaca oleracea (Portulaca oleracea; Table 5-20, field, 20 g of a.i./ha): 43%; Activity [%] against Portulaca oleracea (Portulaca oleracea; Table 5-22, field, 10 g of a.i./ha): 38%; Activity [%] against Cassia obtusifolia (Cassia obtusifolia; Table 5-12, field, 20 g of a.i./ha): 0%; Activity [%] against Cassia obtusifolia (Cassia obtusifolia; Table 5-24, field, 20 g of a.i./ha): 0%; Activity [%] against Cassia obtusifolia (Cassia obtusifolia; Table 5-25, field, 25 g of a.i./ha): 65%; Activity [%] against Sida spinosa (Sida spinosa; Table 5-10, field): 60%; Activity [%] against Sida spinosa (Sida spinosa; Table 5-11, field): 60%; Activity [%] against Sida spinosa (Sida spinosa; Table 5-21, field): 60%; Activity [%] against Abutilon theophrasti (Abutilon theophrasti; 20 g of a.i./ha): 78%

Question: Which results are given for CCc1c(C(=O)Nc2nnnn2C)ccc(Cl)c1SC [A1-36]?
Answer: Activity [%] against Amaranthus retroflexus (Amaranthus retroflexus; 50 g of a.i./ha): 0%; Activity [%] against Bidens pilosa (Bidens pilosa; Table 5-46, greenhouse, 2 g of a.i./ha): 45%; Activity [%] against Bidens pilosa (Bidens pilosa; Table 5-47, greenhouse, 4 g of a.i./ha): 30%; Activity [%] against Brachiaria platyphylla (Brachiaria platyphylla; Table 5-45, greenhouse, 2 g of a.i./ha): 25%

Question: For Cc1ccc(C(=O)Nc2nnnn2C)c(Cl)c1S(C)(=O)=O [A1-49], which “Activity [%] against Lolium multiflorum” value (Lolium multiflorum; Table 5-54, field) is on record?
Answer: Its value is 40%.

Question: What about the “Activity [%] against Polygunum convolvulus” value (Polygunum convolvulus; 25 g of a.i./ha) of the same compound?
Answer: The value was 35%.

Question: What about the “Activity [%] against Ambrosia artemisiifolia” value (Ambrosia artemisiifolia) of the same compound?
Answer: The value was 80%.

Question: COCc1c(S(C)(=O)=O)ccc(C(=O)Nc2nnnn2C)c1Cl [A1-60] was tested. Which “Activity [%] against Galium aparine” value (Galium aparine; Table 5-61, field, 25 g of a.i./ha) did it give?
Answer: The value was 30%.

Question: And the “Activity [%] against Galium aparine” value (Galium aparine; Table 5-62, field, 25 g of a.i./ha)?
Answer: The value was 73%.

Question: What about the “Activity [%] against Centaurea cyanis” value (Centaurea cyanis [1]; 25 g of a.i./ha) of the same compound?
Answer: The value was 45%.

Question: And the “Activity [%] against Alopecurus myosuroides” value (Alopecurus myosuroides; 25 g of a.i./ha)?
Answer: Its value is 15%.

Question: And the “Activity [%] against Lolium multiflorum” value (Lolium multiflorum; Table 5-58, field)?
Answer: Its value is 15%.

Question: And the “Activity [%] against Euphorbia heterophylla” value (Euphorbia heterophylla; Table 5-63, field, alone, 25 g of a.i./ha)?
Answer: Its value is 30%.

Question: What about the “Activity [%] against Brachiaria platyphylla” value (Brachiaria platyphylla; Table 5-55, greenhouse, 1 g of a.i./ha) of the same compound?
Answer: Its value is 0%.

Question: And the “Activity [%] against Brachiaria platyphylla” value (Brachiaria platyphylla; Table 5-57, greenhouse, 2 g of a.i./ha)?
Answer: The value was 40%.

Question: What about the “Activity [%] against Xanthium strumarium” value (Xanthium strumarium) of the same compound?
Answer: Its value is 25%.

Question: What does the source list for Cn1nnnc1NC(=O)c1ccc(S(C)(=O)=O)c(OCC2CC2)c1Cl [A1-74]?
Answer: Activity [%] against Veronica hederifolia (Veronica hederifolia [2]; 3 g of a.i./ha): 40%; Activity [%] against Polygonum convolvulus (Polygonum convolvulus; Table 5-88, greenhouse, 3 g of a.i./ha): 0%; Activity [%] against Papaver rhoeas (Papaver rhoeas; Table 5-86, greenhouse, 3 g of a.i./ha): 30%; Activity [%] against Papaver rhoeas (Papaver rhoeas; Table 5-87, greenhouse, 3 g of a.i./ha): 40%

Question: What does the source list for CCNc1nc(Cl)nc(NC(C)C)n1 [atrazine]?
Answer: Activity [%] against Portulaca oleracea (Portulaca oleracea; Table 5-13, field, 250 g of a.i./ha): 25%; Activity [%] against Amaranthus retroflexus (Amaranthus retroflexus; 560 g of a.i./ha): 60%; Activity [%] against Euphorbia heterophylla (Euphorbia heterophylla; Field, dosage 1000 g of a.i./ha): 55%; Activity [%] against Euphorbia heterophylla (Euphorbia heterophylla; Table 5-51, field, alone, 1000 g of a.i./ha): 49%; Activity [%] against Euphorbia heterophylla (Euphorbia heterophylla; Table 5-63, field, alone, 1000 g of a.i./ha): 49%; Activity [%] against Euphorbia heterophylla (Euphorbia heterophylla; Table 5-85, field, alone, 1000 g of a.i./ha): 49%

Question: What does the source list for N#Cc1cc(Br)c(O)c(Br)c1 [bromoxynil]?
Answer: Activity [%] against Stellaria media ([3]; Table 5-114): 10%; Activity [%] against Stellaria media ([3]; Table 5-116): 5%; Activity [%] against Galium aparine (Galium aparine; Table 5-04, field, 210 g of a.i./ha): 13%; Activity [%] against Galium aparine (Galium aparine; Table 5-62, field, 210 g of a.i./ha): 13%; Activity [%] against Galium aparine (Galium aparine; Table 5-92, field, 210 g of a.i./ha): 25%; Activity [%] against Cassia obtusifolia (Cassia obtusifolia; Table 5-25, field, 210 g of a.i./ha): 10%; Activity [%] against Veronica hederifolia (Veronica hederifolia [4]; Table 5-66, field): 5%; Activity [%] against Veronica hederifolia (Veronica hederifolia [4]; Table 5-74, field): 5%; Activity [%] against Veronica hederifolia (Veronica hederifolia [4]; Table 5-76, field): 0%; Activity [%] against Veronica hederifolia (Veronica hederifolia [4]; Table 5-79, field): 5%; Activity [%] against Polygunum convolvulus (Polygunum convolvulus; 210 g of a.i./ha): 30%

Question: How did the “Activity [%] against Abutilon theophrasti” value (Abutilon theophrasti; 500 g of a.i./ha) turn out when COC[C@H](C)N(C(=O)CCl)c1c(C)csc1C [dimethenamide-P] was run?
Answer: Its value is 25%.

Question: Which results are given for CCOC(=O)[C@@H](C)Oc1ccc(Oc2nc3ccc(Cl)cc3o2)cc1 [fenoxaprop-P-ethyl]?
Answer: Activity [%] against Alopecurus myosuroides (Alopecurus myosuroides; 83 g of a.i./ha): 30%; Activity [%] against Avena fatua (Avena fatua; Table 5-01, greenhouse, 25 g of a.i./ha): 0%; Activity [%] against Avena fatua (Avena fatua; Table 5-05, greenhouse, 12.5 g of a.i./ha): 0%; Activity [%] against Avena fatua (Avena fatua; Table 5-07, greenhouse, 12.5 g of a.i./ha): 0%; Activity [%] against Avena fatua (Avena fatua; Table 5-49, greenhouse, 25 g of a.i./ha): 0%; Activity [%] against Viola tricolor (Viola tricolor; Table 5-02, greenhouse, 25 g of a.i./ha): 0%; Activity [%] against Viola tricolor (Viola tricolor; Table 5-09, greenhouse, 12.5 g of a.i./ha): 15%; Activity [%] against Centaurea cyanis (Centaurea cyanis [5]; Table 5-50, greenhouse, 25 g of a.i./ha): 0%; Activity [%] against Phalaris minor (Phalaris minor): 15%; Activity [%] against Polygonum convolvulus (Polygonum convolvulus; Table 5-08, greenhouse, 25 g of a.i./ha): 0%; Activity [%] against Papaver rhoeas (Papaver rhoeas; Table 5-06, greenhouse, 12.5 g of a.i./ha): 20%

Question: Which “Activity [%] against Centaurea cyanis” value (Centaurea cyanis [1]; 240 g of a.i./ha) does the source give for CC(C)N(C(=O)COc1nnc(C(F)(F)F)s1)c1ccc(F)cc1 [flufenacet] here?
Answer: Its value is 0%.

Question: Which results are given for CCc1cc(C)cc(CC)c1-c1c(OC(=O)C(C)(C)C)n2n(c1=O)CCOCC2 [pinoxaden]?
Answer: Activity [%] against Viola tricolor (Viola tricolor; Table 5-42, greenhouse, 10 g of a.i./ha): 0%; Activity [%] against Veronica hederifolia (Veronica hederifolia [2]; 10 g of a.i./ha): 20%; Activity [%] against Centaurea cyanis (Centaurea cyanis [5]; Table 5-38, greenhouse, 5 g of a.i./ha): 0%; Activity [%] against Centaurea cyanis (Centaurea cyanis [5]; Table 5-40, greenhouse, 5 g of a.i./ha): 15%; Activity [%] against Polygonum convolvulus (Polygonum convolvulus; Table 5-88, greenhouse, 10 g of a.i./ha): 0%; Activity [%] against Papaver rhoeas (Papaver rhoeas; Table 5-39, greenhouse, 5 g of a.i./ha): 0%; Activity [%] against Papaver rhoeas (Papaver rhoeas; Table 5-41, greenhouse, 10 g of a.i./ha): 10%; Activity [%] against Papaver rhoeas (Papaver rhoeas; Table 5-86, greenhouse, 10 g of a.i./ha): 0%; Activity [%] against Papaver rhoeas (Papaver rhoeas; Table 5-87, greenhouse, 10 g of a.i./ha): 50%
